Test results published in ChEMBL document CHEMBL1130990, “High-throughput synthesis and direct screening for the discovery of novel hydrolytic metal complexes” (Bioorg Med Chem Lett, 1998).

Key:
[1] = Compound was evaluated for rate enhancement, obtained in the hydrolysis of N-methoxycarbonyl-L-phenylalanine-p-nitrophenylester (Ko = 1.1 x 10 e-3/min); ratio=Kobs/K0; assay type: ADME
[2] = Compound was evaluated for rate enhancement, obtained in the hydrolysis of para-nitrophenyl acetate (Ko = 1.6 x 10 e-4/min); ratio=Kobs/K0; assay type: ADME

Compound `[O-][Cl+3]([O-])([O-])[O][Zn][O][Cl+3]([O-])([O-])[O-].c1ccc2c(c1)CNCCNCCNCc1ccccc1OCC(Oc1ccc3ccccc3c1)CO2` has a Ratio [1] of 4.7 and a Ratio [2] of 2.9.

Work on `COC1COc2ccccc2CNCCNCCNCc2ccccc2OC1.[O-][Cl+3]([O-])([O-])[O][Zn][O][Cl+3]([O-])([O-])[O-]` yielded a Ratio [1] of 3 and a Ratio [2] of 2.4.

In the case of `OC1COc2ccccc2CNCCNCCNCc2ccccc2OC1.[O-][Cl+3]([O-])([O-])[O][Zn][O][Cl+3]([O-])([O-])[O-]`, the Ratio [1] is reported as 2.9 and the Ratio [2] is reported as 1.7.

Compound `[O-][Cl+3]([O-])([O-])[O][Zn][O][Cl+3]([O-])([O-])[O-].c1ccc(OC2COc3ccccc3CNCCNCCNCc3ccccc3OC2)cc1` has a Ratio [1] of 3.9 and a Ratio [2] of 2.5.
